Laboratory results as given in patent US8207108B2, “Stabilizing composition” (DSM IP Assets B.V., priority 2005, dated 2012).
Blank lines part the entries; values can stand above or below the molecule they belong to.

What was measured:
Assay type in all cases: physicochemical
[1] = Solubility of stabilizer in water/ethanol mixture as found in perfumes (appearance); settings: 0.1 wt. % stabilizer in water/ethanol (96%) 53.9/46 wt. %
Excerpt: An often occurring problem in the stabilization of colorants, dyes, fragrances and active ingredients is the solubility respectively the crystallization of the stabilizer/stabilizing composition in the final product form.

[2] = Color stabilization in blue liquid soap, irradiated with 100 MED, visual PANTONE color; settings: irradiated 100 MED
Protocol: (§1) Basic formulation of the liquid soap:
(§2) The liquid soaps containing different colorants were irradiated with 100 MED and the color was determined visually according to Tints; PANTONE Color Tint Selector, The PANTONE Library of Color.
Blue liquid soap colored with FD&C Blue 1 W 092 (CI 42090)

[3] = Color stabilization in violet liquid soap, irradiated with 100 MED, visual PANTONE color; settings: irradiated 100 MED
Protocol: as §1, §2

[4] = Color stabilization in green liquid soap, irradiated with 100 MED, visual PANTONE color; settings: irradiated 100 MED
Protocol: as §1, §2
Green liquid soap colored with 0.9 ppm Green vent W 7003 (CI 61570)

[5] = 0.1 wt. % stabilizer, blank non irradiated 70% Tint

Appearance [1]: Precipitate
SMILES: O=C(c1ccc(O)cc1O)c1ccc(O)cc1O [Benzophenon-2]

Appearance [1]: Turbid
SMILES: COc1ccc(C(=O)c2ccccc2)c(O)c1 [Benzophenon-3]

Index (PANTONE tint) ([2]; 0.1 wt. % stabilizer, blank non irradiated 50% Tint): 50% Tint
Color (PANTONE) ([2]; FD&C Blue 1 W 092, 0.1 wt. % stabilizer, blank non irradiated Pantone 3125C): Pantone 3125C
Index (PANTONE tint) [3, 5]: 30% Tint
Color (PANTONE) ([3]; 3.1 ppm Vert Turquise W 7003 and 0.5 ppm FD&C Red 40WO93, 0.1 wt. % stabilizer, blank non irradiated Pantone 494C): Pantone 495C
SMILES: O=C(c1ccccc1)c1ccc(O)cc1O [Benzophenone-1, benzophenone-1]

Index (PANTONE tint) [4, 5]: 70% Tint
Color (PANTONE) ([4]; 0.9 ppm Green vent W 7003, 0.1 wt. % stabilizer, blank non irradiated Pantone 367C): Pantone 367C
SMILES: COc1cc(O)c(C(=O)c2ccccc2)cc1S(=O)(=O)O [Benzophenone-4, benzophenone-4]
